Type in all cases: cell-based
Test [1] concerns human neutrophils. Kind of test: fMLF-induced neutrophil chemotaxis (ChemoTx chambers). To be noted: 1 h, 1 nM fMLF, 60 min migration. How it is done: Human neutrophils were suspended in HBSS^+ containing 2% (v/v) heat-inactivated fetal bovine serum (2 × 10^6 cells/mL), and effects of the compounds on fMLF-induced chemotaxis was analyzed in 96-well ChemoTx chemotaxis chambers (Neuroprobe, Gaithersburg, MD, USA). In brief, neutrophils were preincubated with the indicated concentrations of the test compounds or DMSO for 20 min at room temperature and added to the upper wells of the ChemoTx chemotaxis chambers. The lower wells were loaded with 30 µL of HBSS^+ containing 2% (v/v) fetal bovine serum and the indicated concentrations of test sample plus 1 nM fMLF, DMSO (negative control), or 1 nM fMLF as a positive control. Neutrophils were added to the upper wells and allowed to migrate through the 5.0-µm pore polycarbonate membrane filter for 60 min at 37 °C and 5% CO2. The number of migrated cells was determined by measuring ATP in lysates of transmigrated cells using a luminescence-based assay (CellTiter-Glo; Promega, Madison, WI, USA), and luminescence measurements were converted to absolute cell numbers by comparison of the values with standard curves obtained with known numbers of neutrophils. Curve fitting (at least eight to nine points) and calculation of median effective concentration values (IC50) were performed by nonlinear regression analysis of the dose-response curves generated using Prism 5.

For test [2], the system named is human neutrophils. Briefly: Inhibition of fMLF-induced [Ca2+]i flux in human neutrophils. To be noted: Neutrophil, 10 min preincubation, 5 nM fMLF, N.A. = no activity at < 50 µM, read-out: FPR1/FPR2 Agonist-Induced Δ[Ca^2+]i Neutrophils IC50. The procedure:
Since these compounds elevated neutrophil [Ca^2+]i, and cytosolic Ca^2+ flux is a key component of neutrophil activation, we evaluated if they could alter neutrophil activation by FPR1 or FPR2 agonists. Neutrophils and FPR-transfected HL60 cells were preincubated for 10 min with crown ether compounds, and [Ca^2+]i flux was stimulated with either an FPR1 agonist (fMLF for human neutrophils and FPR1-HL60 cells) or an FPR2 agonist (WKYMVM for FPR2-HL60 cells).
Changes in neutrophil intracellular Ca^2+ concentrations ([Ca^2+]i) were measured with a FlexStation 3 scanning fluorometer (Molecular Devices, Sunnyvale, CA, USA). Briefly, human neutrophils were suspended in HBSS^−, loaded with Fluo-4AM at a final concentration of 1.25 μg/mL, and incubated for 30 min in the dark at 37 °C. After dye loading, the cells were washed with HBSS^−, resuspended in HBSS^+, separated into aliquots, and loaded into the wells of flat-bottom, half-area well black microtiter plates (2 × 10^5 cells/well). To assess the direct effects of test compounds on Ca^2+ flux, the compounds were added to the wells (final concentration of DMSO was 1%), and changes in fluorescence were monitored (λex = 485 nm, λem = 538 nm) every 5 s for 240 s at room temperature after addition of the test compound. To evaluate inhibitory effects of the compounds on FPR1/FPR2-dependent Ca^2+ flux, the compounds were added to the wells (final concentration of DMSO was 1%) with cells (human neutrophils or FPR1/FPR2 HL60 cells). The samples were preincubated for 10 min, followed by addition of 5 nM fMLF (for human neutrophils or FPR1-HL60 cells) or 5 nM WKYMVM (for FPR2-HL60 cells). The maximum change in fluorescence, expressed in arbitrary units over baseline, was used to determine the agonist response. Responses were normalized to the response induced by 5 nM fMLF or 5 nM WKYMVM, which were assigned as 100%. Curve fitting (at least five or six points) and calculation of median effective concentration values (EC50 or IC50) were performed by nonlinear regression analysis of the dose–response curves generated using Prism 7 (GraphPad Software, Inc., San Diego, CA, USA). Efficacy was determined by comparing individual responses activated by the test compounds to that induced by a positive control (5 nM fMLF), which was assigned a value of 100%.

For test [3], the system named is human neutrophils. Kind of test: PMA-induced ROS production (L-012 chemiluminescence). To be noted: Neutrophil, 200 nM PMA, N.A. = no activity at < 50 µM. The text has this:
To evaluate if the crown ethers could also disrupt GPCR-independent functional activity, we evaluated the effects of these compounds on phorbol 12-myristate 13-acetate (PMA)-stimulated reactive oxygen species (ROS) production. […] A representative concentration-dependent response for the inhibition of PMA-stimulated neutrophil ROS production by compound 15 is shown in Figure 2B. Since ROS production in neutrophils also requires increased [Ca^2+]i, the results again confirm that the impact of these compounds on Ca^2+ flux kinetics can alter neutrophil function.
ROS production was determined by monitoring L-012-enhanced chemiluminescence, which represents a sensitive and reliable method for detecting superoxide anion (O2^−.) production. Human neutrophils were resuspended at 2 × 10^5 cells/mL in HBSS^+ supplemented with 40 µM L-012. Cells (100 µL) were aliquoted into wells of 96-well flat-bottomed microtiter plates containing test compounds at different concentrations (final DMSO concentration of 1%). Cells were preincubated for 10 min, and 200 nM PMA was added to each well to stimulate ROS production. Luminescence was monitored for 120 min (2-min intervals) at 37 °C using a Fluroscan Ascent FL microtiter plate reader (Thermo Electron, Waltham, MA, USA). The curve of light intensity (in relative luminescence units) was plotted against time, and the area under the curve was calculated as total luminescence. The compound concentration that inhibited ROS production by 50% of the PMA-induced response (positive control) was determined by graphing the percentage inhibition of ROS production versus the logarithm of concentration of test sample (IC50). Each curve was determined using five to seven concentrations.

Take `O=C(CC12CC3CC(CC(C3)C1)C2)N1CCOCCOCCN(C(=O)CC23CC4CC(CC(C4)C2)C3)CCOCC1` [Compound 15, N,N’-bis[2-(1-adamantyl)acetyl]-4,10-diaza-15-crown-5]: the IC50 was found to be 5.7 ± 0.2 µM in the test with human neutrophils [1], 4.1 ± 0.6 µM with human neutrophils [2] and 4.1 ± 0.1 µM in the test on human neutrophils [3].
With `O=C(N1CCOCCOCCOCCN(C(=O)C23CC4CC(CC(C4)C2)C3)CCOCC1)C12CC3CC(CC(C3)C1)C2` [Compound 14, N,N’-bis[1-oxo-1-(1-adamantyl)methyl]-4,10-diaza-18-crown-6], the IC50 came out at 6.1 ± 2.1 µM in the test with human neutrophils [1], 3.5 ± 0.4 µM in the test with human neutrophils [2] and 21.9 ± 2.2 µM in the test with human neutrophils [3].
The matching figures for `O=C(CC12CC3CC(CC(C3)C1)C2)N1CCOCCOCCN(C(=O)CC23CC4CC(CC(C4)C2)C3)CCOCCOCC1` [Compound 17, N,N’-bis[2-(1-adamantyl)acetyl]-4,13-diaza-18-crown-6]: 5.2 ± 1.7 µM, 1.5 ± 0.4 µM and 8.2 ± 0.1 µM.
For the compound `O=C(N1CCOCCOCCN(C(=O)C23CC4CC(CC(C4)C2)C3)CCOCC1)C12CC3CC(CC(C3)C1)C2` [Compound 13, N,N’-bis[1-oxo-1-(1-adamantyl)methyl]-4,10-diaza-15-crown-5], the IC50 came to 5.8 ± 1.4 µM with human neutrophils [1], 7.4 ± 1.3 µM in the test with human neutrophils [2] and 25.9 ± 2.7 µM in the test with human neutrophils [3].

Source of the values: PMC8069214, “Synthesis, Biological Evaluation, and Molecular Modeling of Aza-Crown Ethers” (Molecules, 2021).
